Converted amounts (≈) assume the structure as drawn.
What was measured:
Staphylococcus aureus = assay: In vitro antibacterial activity towards Staphylococcus aureus 209 JC-1; type: functional
Escherichia coli = assay: In vitro antibacterial activity of compound towards Escherichia coli NIHJ JC-2; type: functional
P388 = assay: In vitro cytotoxicity was measured towards murine lymphocytic leukemia P388 cells; type: functional, cell-based; settings: Mus musculus
MKN-45 = assay: Cytotoxic activity against human MKN45 stomach tumor cell line; type: functional, cell-based
HMV-2 cell line = assay: Cytotoxic activity against human HMV-2 melanoma tumor cell line; type: functional, cell-based
AZ-521 cell line = assay: cells; type: functional, cell-based; settings: Homo sapiens
Description: Cytotoxic activity against human AZ-521 stomach tumor cell line

KB = assay: Cytotoxic activity against human KB nasopha tumor cell line; type: functional, cell-based
Mus musculus [1] = assay: In vivo antitumor activity against murine P388 leukemia measured as median survival of treated mice to that of control (T/C) at a dose of […]; type: functional
C-33-A = assay: Cytotoxic activity against human C-33A cervix tumor cell line; type: functional, cell-based
WiDr = assay: Cytotoxic activity against human WiDr colon tumor cell line; type: functional, cell-based
Mus musculus [2] = assay: In vivo antitumor activity against murine P388 leukemia measured as median survival of treated mice to that of control (T/C) at a dose of 50 mg/kg; type: functional
A-427 = assay: cells; type: functional, cell-based; settings: Homo sapiens
Description: Cytotoxic activity against human A-427 lung tumor cell line

MIC (Staphylococcus aureus) [µg/mL] | MIC (Escherichia coli) [µg/mL] | Compound | IC50 (P388) [µg/mL] | IC50 (MKN-45) [µg/mL] | IC50 (HMV-2 cell line) [µg/mL] | IC50 (AZ-521 cell line) [µg/mL] | IC50 (KB) [µg/mL] | T/C (Mus musculus [1]) [%] | T/C (Mus musculus [1]; dose […]) [%] | IC50 (C-33-A) [µg/mL] | IC50 (WiDr) [µg/mL] | T/C (Mus musculus [2]) [%] | IC50 (A-427) [µg/mL] | T/C (Mus musculus [1]; dose […] mg/kg, […]) [%]
50 (≈ 124 µM) | 12.5 (≈ 31 µM) | CCOC(=O)c1cn(-c2nccs2)c2nc(N3CCC(N)C3)c(F)cc2c1=O (stereo not given) | 0.136 (≈ 0.337 µM) | – | – | – | – | – | – | – | – | – | – | –
> 100 | > 100 | NC(=O)c1cn(-c2nccs2)c2nc(N3CCC(N)C3)c(F)cc2c1=O (stereo not given) | 0.269 (≈ 0.718 µM) | – | – | – | – | – | – | – | – | – | – | –
50 (≈ 144 µM) | 0.78 (≈ 2.25 µM) | NC1CCN(c2nc3c(cc2F)c(=O)c(O)cn3-c2nccs2)C1 (stereo not given) | 0.168 (≈ 0.484 µM) | – | – | – | – | – | – | – | – | – | – | –

Further lines, the compound ahead of its results:

Compound | MIC (Staphylococcus aureus) [µg/mL] | MIC (Escherichia coli) [µg/mL] | IC50 (P388) [µg/mL] | IC50 (MKN-45) [µg/mL] | IC50 (HMV-2 cell line) [µg/mL] | IC50 (AZ-521 cell line) [µg/mL] | IC50 (KB) [µg/mL] | T/C (Mus musculus [1]) [%] | T/C (Mus musculus [1]; dose […]) [%] | IC50 (C-33-A) [µg/mL] | IC50 (WiDr) [µg/mL] | T/C (Mus musculus [2]) [%] | IC50 (A-427) [µg/mL] | T/C (Mus musculus [1]; dose […] mg/kg, […]) [%]
CN[C@H]1CN(c2nc3c(cc2F)c(=O)c(C=O)cn3-c2nccs2)C[C@@H]1OC | 12.5 (≈ 31 µM) | 100 (≈ 248 µM) | 0.0309 (≈ 0.0766 µM) | 0.144 (≈ 0.357 µM) | 0.214 (≈ 0.53 µM) | 0.0307 (≈ 0.0761 µM) | 0.179 (≈ 0.444 µM) | 188 | 250 | 0.161 (≈ 0.399 µM) | 0.264 (≈ 0.654 µM) | 325 | 0.0749 (≈ 0.186 µM) | –
NC1CCN(c2nc3c(cc2F)c(=O)c(Cc2ccccc2)cn3-c2nccs2)C1 (stereo not given) | 50 (≈ 119 µM) | 100 (≈ 237 µM) | 0.0178 (≈ 0.0422 µM) | – | – | – | – | – | – | – | – | – | – | –
COc1cc([C@@H]2c3cc4c(cc3[C@@H](O[C@@H]3O[C@@H]5CO[C@@H](C)O[C@H]5[C@H](O)[C@H]3O)[C@H]3COC(=O)[C@H]23)OCO4)cc(OC)c1O [ETOPOSIDE] | – | – | – | 0.49 (≈ 0.833 µM) | 0.298 (≈ 0.506 µM) | 0.08 (≈ 0.136 µM) | 0.201 (≈ 0.342 µM) | 175 | – | 0.084 (≈ 0.143 µM) | 1.63 (≈ 2.77 µM) | >375 | – | 250
NC1CCN(c2nc3c(cc2F)c(=O)c(C(=O)O)cn3-c2nccs2)C1 (stereo not given) | 0.39 (≈ 1.04 µM) | 0.025 (≈ 0.0666 µM) | 0.0211 (≈ 0.0562 µM) | – | – | – | – | 150 | 213 | – | – | >375 | – | –
